Data set [1] deals with T1, dihydrofolate reductase (DHFR) found in Pneumocystis carinii (Pneumocystis carinii, UniProt P16184).
T1 sequence (P16184 1-206): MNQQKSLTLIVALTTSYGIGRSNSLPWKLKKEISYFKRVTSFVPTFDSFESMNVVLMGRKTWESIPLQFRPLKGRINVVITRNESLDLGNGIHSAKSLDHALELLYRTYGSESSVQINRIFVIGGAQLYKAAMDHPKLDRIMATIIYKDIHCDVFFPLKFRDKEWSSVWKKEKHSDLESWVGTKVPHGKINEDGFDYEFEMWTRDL
Conditions: stated without a test; cited from earlier work.

Data set [2] deals with T2, trypsin (Bos taurus, UniProt P00760).
T2 construct: gene PRSS1
T2 sequence (P00760 24-246): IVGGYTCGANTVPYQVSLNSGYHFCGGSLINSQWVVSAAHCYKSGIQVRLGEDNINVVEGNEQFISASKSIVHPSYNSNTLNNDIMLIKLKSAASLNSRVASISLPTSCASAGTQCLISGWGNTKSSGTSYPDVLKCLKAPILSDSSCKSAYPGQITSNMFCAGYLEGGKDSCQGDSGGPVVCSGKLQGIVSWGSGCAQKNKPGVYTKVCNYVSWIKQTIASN
Briefly: Proteolysis of peptoids and peptides by trypsin. It is filed as in vitro ADME. An excerpt:
(§1) Both compounds were purified to homogeneity by HPLC.

In data set [3] the target is chymotrypsin (Bos taurus, UniProt P00766). Briefly: Proteolysis of peptoids and peptides by chymotrypsin. The data set is classed as in vitro ADME.
Source text: as §1

In data set [4] the test system is T3, trypsin.
T3 construct: gene PRSS1
Description: Proteolysis of peptoids and peptides by trypsin. It is filed as in vitro ADME. Conditions: trypsin (isolated protease) in Tris buffer, trypsin, 37° C., pH 8.0, read-out: % Area at 280 nm Remaining of Parent Peak by RP-HPLC.
Source text: as §1

Data set [5] deals with chymotrypsin. Briefly: Proteolysis of peptoids and peptides by chymotrypsin. It is filed as in vitro ADME. Conditions: chymotrypsin (isolated protease) in Tris buffer, chymotrypsin, 37° C., pH 8.0, read-out: % Area at 280 nm Remaining of Parent Peak by RP-HPLC.
Source text: as §1

Data set [6] concerns bacterial dihydrofolate reductases. The conditions noted are these: stated without a test; cited from earlier work.
Data set [7] relates to antiserum S259-8 (epitope KDFL). Description: Antibody binding of peptides and peptoids on pins, serum S259-8. More on the design: key: A `P` represents a peptide sequence which gave the highest 6-8 signals; a `*` represents a peptoid sequence which scored in the top 6-10. Conditions: serum S259-8, epitope KDFL; for antibody binding signal rank, peptide sequence: peptide on pins; for antibody binding signal rank, peptoid sequence: peptoid on pins. The procedure: (§2) Peptoids and peptides were prepared on the pins and tested under standard conditions. The assay is best interpreted qualitatively, and the chart below gives a summary of data from three antisera tested. They are representative for the twelve sera which gave signals with both the peptoids and peptides. A `P` represents a peptide sequence which gave the highest 6-8 signals. Likewise, a `*` represents a peptoid sequence which scored in the top 6-10. For the three sera tested, 33/120 sequences are represented which lends support to the premise that there is selective binding shown by the antibody.

For data set [8], the system named is antiserum S259-6 (epitope DFLEKI). Description: Antibody binding of peptides and peptoids on pins, serum S259-6. More on the design: key: A `P` represents a peptide sequence which gave the highest 6-8 signals; a `*` represents a peptoid sequence which scored in the top 6-10. Conditions: serum S259-6, epitope DFLEKI. Here is the method: as §2

Residues, ends and D or L forms follow the SMILES beside them. *: point of attachment. Fmoc = O=C(OCC1c2ccccc2-c2ccccc21)*

Consider 18 compounds from US6075121A, “Modified peptide and peptide libraries with protease resistance, derivatives thereof and methods of producing and screening such” (Chiron Corporation, priority 1995, dated 2000).

What is called share remaining is the share of the starting amount still present when the sample was taken.

For `COc1cc(Cc2cnc(N)nc2N)cc(OC)c1NC(=O)CCC(=O)O` [2,4-diamino-5-[3,5-di-methoxy-4-(3-hydrocarboxy-1-oxopropylamino)benzyl]pyrimidine], the “inhibitory activity on DHFR” value in data set [1] is given as “inhibitory activity specific for the enzyme dihydrofolate reductase (DHFR) found in Pneumocystis carinii”.

Take `CC(C)C[C@H](NC(=O)OCC1c2ccccc2-c2ccccc21)C(=O)N[C@@H](CC(=O)O)C(=O)N[C@@H](Cc1ccccc1)C(=O)N[C@@H](CO)C(=O)N[C@@H](CCCCN)C(=O)NCC(=O)O` [PEPTIDE, FMOC-LDFSKG-OH] (Fmoc-LDFSKG-OH): the “number of places cleaved by trypsin” value at trypsin [2] is given as “only one place”. Moreover, on trypsin [2] (37° C., pH 8.0), the “time to complete cleavage by trypsin” value is not above 5 min. Besides, on chymotrypsin [3], the “number of chymotrypsin cleavage sites” value was “at least two cleavage sites”. On chymotrypsin [3] (after 10 minutes), the “cleavage completed at the preferential chymotrypsin site” value is on record as ~ 60%. In addition, the “cleavage at the second chymotrypsin site” value on chymotrypsin [3] (after three hours) is “not completely cleaved”.

`CC(C)CN(CC(=O)N(CC(=O)O)CC(=O)N(CC(=O)N(CCO)CC(=O)N(CCN)CC(=O)NCC(=O)O)Cc1ccccc1)C(=O)OCC1c2ccccc2-c2ccccc21` [PEPTOID, FMOC-L*D*F*S*K*G-OH]: the “change of substrate under proteolysis conditions” value at trypsin [2] (all reaction conditions (trypsin, chymotrypsin, control)) is on record as “remained unchanged”. Besides, the share remaining at 5 min, 0.48 mg/mL with trypsin [4] (5 min) and in the data set on chymotrypsin [5] (5 min) was 100% in each case. Besides, the share remaining at 10 min, 0.48 mg/mL in the data set with trypsin [4] (10 min) and in the data set with chymotrypsin [5] (10 min) was 100% in each case. For the same compound, the fraction remaining at 3 h, 0.48 mg/mL in the data set on trypsin [4] (3 hours) and with chymotrypsin [5] (3 hours) was 100% throughout.

`COc1cc(Cc2cnc(N)nc2N)cc(OC)c1OC` [Trimethoprim]: in data set [6], the “inhibition of dihydrofolate reductases” value was “potent inhibitor”.

For DFLKS, the “antibody binding signal rank, peptide sequence” value in data set [7] is reported as “P”.

As to DFLSK, the “antibody binding signal rank, peptide sequence” value in data set [8] and in data set [7] was “P” in each case.

Take DKFSL: the “antibody binding signal rank, peptide sequence” value in data set [8] is listed as “P”.

For the compound FSKLD, the “antibody binding signal rank, peptide sequence” value in data set [8] is given as “P”.

On to KDFLS, for which the “antibody binding signal rank, peptide sequence” value in data set [8] and in data set [7] was “P” in each case.

On to KFLDS, for which the “antibody binding signal rank, peptide sequence” value in data set [8] is “P”.

On to KLSFD, for which, in data set [7], the “antibody binding signal rank, peptide sequence” value is recorded as “P” and the “antibody binding signal rank, peptoid sequence” value is reported as “*”.

With KSDFL, the “antibody binding signal rank, peptide sequence” value in data set [7] was “P”.

For the compound LFKDS, the “antibody binding signal rank, peptide sequence” value in data set [8] is reported as “P”.

On to LKFDS, for which the “antibody binding signal rank, peptide sequence” value in data set [8] is reported as “P”.

As to LKSFD, in data set [7], the “antibody binding signal rank, peptide sequence” value was “P” and the “antibody binding signal rank, peptoid sequence” value is “*”.

As for SDFLK, in data set [8], the “antibody binding signal rank, peptide sequence” value is “P”. Moreover, in data set [7], the “antibody binding signal rank, peptide sequence” value was “P” and the “antibody binding signal rank, peptoid sequence” value is reported as “*”.

In the case of SFLDK, the “antibody binding signal rank, peptide sequence” value in data set [7] is recorded as “P”.

As for SKDFL, the “antibody binding signal rank, peptide sequence” value in data set [7] is “P”.
